Assay results reported in patent publication EP0547191B1, “PARTICULATE VECTOR HAVING SELECTIVE TROPISM, METHOD OF PREPARATION AND PHARMACEUTICAL COMPOSITION” (BIOVECTOR THERAPEUTICS SA, priority 1991, dated 1992).

System: fibroblastes humains normaux
Assay: Flow cytofluorimetry: cellular incorporation of doxorubicin measured by emitted fluorescence
Type: cell-based
Details: fibroblasts after 48h in lipoprotein-depleted medium
Description: Après 48h de culture en milieu délipoprotéiné, les fibroblastes humains normaux sont incubés avec de la doxorubicine sous forme libre ou encapsulée dans des BVSM ou des BVSM-apoB. Après incubation, de 0, à 2h, ils sont lavés, mis en contact avec de la trypsine 0,05% pendant 1min à37°C, repris en suspension dans du milieu de culture et fixés par du paraformaldéhyde. Les suspensions cellulaires obtenues sont analysées à l'aide d'un cytofluorimètre de flux (Becton-Dickinson Fac-scan) et l'incorporation cellulaire de la doxorubicine est mesurée par l'intensité de fluorescence émise. Les témoins fibroblastes avec BVSM et BVSM-apoB sans doxorubicine ne présentent aucune fluoresence.
Les résultats obtenus sont présentés dans le tableau suivant : […]

With `COc1cccc2c1C(=O)c1c(O)c3c(c(O)c1C2=O)C[C@@](O)(C(=O)CO)C[C@@H]3O[C@H]1C[C@H](N)[C@H](O)[C@H](C)O1` [Doxorubicine libre, doxorubicine] the “Intensité de fluorescence émise” value (Temps d'incubation 0 min) was 5, the “Intensité de fluorescence émise” value (Temps d'incubation 10 min) was 22 and the “Intensité de fluorescence émise” value (Temps d'incubation 30 min) was 25. The “Intensité de fluorescence émise” value (Temps d'incubation 60 min) was 31 and the “Intensité de fluorescence émise” value (Temps d'incubation 120 min) was 42.
